Source: ChEMBL document CHEMBL4376867 (J Med Chem, 2020)
pIC50: −log10 of the molar value.

Experiments:
[1] = system: SK-MEL-2; assay: Antiproliferative activity against human SK-MEL-2 cells harboring NRAS/TP53 mutation assessed as reduction in cell viability after 96 hrs by CellTiter-Glo luminescence assay; assay type: functional, cell-based; settings: SK-MEL-2, 96 h
[2] = biological target: T1, Inhibitor of nuclear factor kappa-B kinase subunit epsilon (Homo sapiens, UniProt Q14164); assay: (§1) Inhibition of recombinant full length human C-terminal GST-tagged IKKepsilon expressed in baculovirus expression system using biotin-labelled Ahx-GDEDFSSFAEPG peptide as substrate preincubated with enzyme for 15 mins followed by substrate addition and further incubated for 30 mins in presence of 10 uM of ATP by TR-FRET assay
T1 sequence (Q14164 whole entry): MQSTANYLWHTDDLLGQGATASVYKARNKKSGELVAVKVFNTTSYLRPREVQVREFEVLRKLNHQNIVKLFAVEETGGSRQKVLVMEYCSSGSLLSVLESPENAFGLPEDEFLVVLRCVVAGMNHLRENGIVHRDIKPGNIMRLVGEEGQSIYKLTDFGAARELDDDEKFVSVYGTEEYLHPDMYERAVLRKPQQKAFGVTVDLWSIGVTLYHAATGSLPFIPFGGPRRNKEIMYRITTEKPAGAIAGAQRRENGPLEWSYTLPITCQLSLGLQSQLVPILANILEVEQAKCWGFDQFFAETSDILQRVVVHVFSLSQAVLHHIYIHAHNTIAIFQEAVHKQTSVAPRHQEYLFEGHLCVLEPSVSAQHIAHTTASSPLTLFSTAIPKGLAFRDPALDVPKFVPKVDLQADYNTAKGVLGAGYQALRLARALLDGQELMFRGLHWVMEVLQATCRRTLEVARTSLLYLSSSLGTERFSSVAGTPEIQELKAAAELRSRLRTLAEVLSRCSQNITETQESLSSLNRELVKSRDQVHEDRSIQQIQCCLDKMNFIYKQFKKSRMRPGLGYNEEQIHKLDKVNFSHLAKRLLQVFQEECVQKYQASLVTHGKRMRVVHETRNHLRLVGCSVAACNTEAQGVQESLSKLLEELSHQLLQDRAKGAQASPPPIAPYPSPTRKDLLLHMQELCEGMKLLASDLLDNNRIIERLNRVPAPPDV

[3] = system: ACHN; assay: Antiproliferative activity against human ACHN cells harboring CDKN2A mutation assessed as reduction in cell viability after 96 hrs by CellTiter-Glo luminescence assay; assay type: functional, cell-based
[4] = biological target: T2, IKK epsilon/TBK1 (Homo sapiens, UniProt Q14164+Q9UHD2); assay: Inhibition of IKKepsilon/TBK1 in human MDB-MB-231 cells transduced with lentiviral vector expressing human IRF3 assessed as decrease in poly(I:C)-stimulated IRF3 phosphorylation at S385/386 residues preincubated for 1 hr followed by poly(I:C) addition and measured after 1 hr; assay type: cell-based
T2 sequence (Q14164 whole entry): T1 sequence (Q14164 whole entry)
T2 sequence (Q9UHD2 whole entry): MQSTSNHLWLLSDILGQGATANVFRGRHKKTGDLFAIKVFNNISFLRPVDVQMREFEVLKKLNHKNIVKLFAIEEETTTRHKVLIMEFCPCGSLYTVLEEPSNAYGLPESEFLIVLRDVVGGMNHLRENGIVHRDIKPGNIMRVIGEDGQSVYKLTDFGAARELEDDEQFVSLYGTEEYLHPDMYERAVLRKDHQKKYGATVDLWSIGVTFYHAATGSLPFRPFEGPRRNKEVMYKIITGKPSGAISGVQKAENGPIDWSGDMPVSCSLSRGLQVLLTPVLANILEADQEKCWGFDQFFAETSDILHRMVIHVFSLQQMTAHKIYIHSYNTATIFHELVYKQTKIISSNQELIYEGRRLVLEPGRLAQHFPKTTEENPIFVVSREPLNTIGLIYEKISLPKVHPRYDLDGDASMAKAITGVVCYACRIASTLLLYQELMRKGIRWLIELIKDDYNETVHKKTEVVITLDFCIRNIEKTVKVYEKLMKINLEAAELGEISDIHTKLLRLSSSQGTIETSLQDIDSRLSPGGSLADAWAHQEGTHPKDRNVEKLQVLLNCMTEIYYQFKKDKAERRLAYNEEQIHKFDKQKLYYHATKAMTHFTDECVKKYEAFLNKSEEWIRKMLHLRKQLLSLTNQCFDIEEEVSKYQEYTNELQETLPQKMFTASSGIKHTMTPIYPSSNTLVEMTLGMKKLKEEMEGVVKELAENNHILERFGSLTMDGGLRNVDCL

[5] = biological target: T3, Serine/threonine-protein kinase TBK1 (Homo sapiens, UniProt Q9UHD2)
T3 sequence (Q9UHD2 whole entry): T2 sequence (Q9UHD2 whole entry)

[6] = biological target: T3, Serine/threonine-protein kinase TBK1; assay: Inhibition of recombinant full length human N-terminal His-tagged TBK1 using biotin-labelled Ahx-GDEDFSSFAEPG peptide as substrate preincubated with enzyme for 15 mins followed by substrate addition and further incubated for 30 mins in presence of 1 mM of ATP by TR-FRET assay
[7] = biological target: CDK9/cyclin T1 (Homo sapiens, UniProt P50750); assay: as §1, with “His-tagged CDK9/CyclinT1” for “C-terminal GST-tagged IKKepsilon”, “Ttds-YISPLKSPYKISEG” for “Ahx-GDEDFSSFAEPG”, “25” for “30”, “mins” for “mins in”
[8] = biological target: T4, Receptor-type tyrosine-protein kinase FLT3 (Homo sapiens, UniProt P36888); assay: Inhibition of recombinant human N-terminal GST-tagged FLT3 (564 to end residues) expressed in sf21 cells using biotin labelled Ahx-GGEEEEYFELVKKKK peptide as substrate preincubated with enzyme for 15 mins followed by substrate addition and further incubated for 45 mins in presence of 10 uM of ATP by TR-FRET assay
T4 sequence (P36888 whole entry): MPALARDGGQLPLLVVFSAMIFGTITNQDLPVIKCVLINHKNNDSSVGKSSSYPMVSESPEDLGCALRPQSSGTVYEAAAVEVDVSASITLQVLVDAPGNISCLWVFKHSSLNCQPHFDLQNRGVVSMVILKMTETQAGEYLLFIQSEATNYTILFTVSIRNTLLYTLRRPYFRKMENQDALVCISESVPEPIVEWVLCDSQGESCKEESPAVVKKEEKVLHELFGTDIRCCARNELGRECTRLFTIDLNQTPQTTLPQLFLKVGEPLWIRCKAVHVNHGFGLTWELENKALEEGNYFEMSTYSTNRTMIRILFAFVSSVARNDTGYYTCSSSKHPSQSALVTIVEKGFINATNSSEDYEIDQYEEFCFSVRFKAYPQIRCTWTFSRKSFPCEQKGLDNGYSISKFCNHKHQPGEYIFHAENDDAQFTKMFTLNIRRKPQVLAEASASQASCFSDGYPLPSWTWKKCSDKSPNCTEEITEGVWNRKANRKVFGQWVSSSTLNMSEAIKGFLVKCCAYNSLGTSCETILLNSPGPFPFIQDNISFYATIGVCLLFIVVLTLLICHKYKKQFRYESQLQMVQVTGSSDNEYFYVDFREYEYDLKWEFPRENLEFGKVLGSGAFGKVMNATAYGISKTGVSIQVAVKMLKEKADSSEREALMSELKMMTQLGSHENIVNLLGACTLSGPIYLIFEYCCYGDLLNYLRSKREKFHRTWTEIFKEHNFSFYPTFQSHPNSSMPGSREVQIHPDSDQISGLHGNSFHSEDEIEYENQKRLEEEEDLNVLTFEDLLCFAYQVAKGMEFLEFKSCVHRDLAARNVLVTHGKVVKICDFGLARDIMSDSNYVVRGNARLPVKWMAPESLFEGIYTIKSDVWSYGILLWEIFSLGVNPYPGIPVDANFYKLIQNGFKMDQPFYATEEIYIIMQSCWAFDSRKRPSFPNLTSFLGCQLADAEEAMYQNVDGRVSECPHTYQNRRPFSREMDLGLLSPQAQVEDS

[9] = biological target: Ribosomal protein S6 kinase alpha-6 (Homo sapiens, UniProt Q9UK32); assay: Inhibition of recombinant full length human His6-tagged RSK4 expressed in baculovirus infected sf21 cells using biotin labelled Ahx-KKLNRTLSFAEPG peptide as substrate preincubated with enzyme for 15 mins followed by substrate addition and further incubated for 30 mins in presence of 10 uM of ATP by TR-FRET assay
[10] = biological target: T5, Serine/threonine-protein kinase 17A (Homo sapiens, UniProt Q9UEE5); assay: Inhibition of wild-type human partial length DRAK1 (R32 to E363 residues) expressed in bacterial expression system by Kinomescan method
T5 sequence (Q9UEE5 whole entry): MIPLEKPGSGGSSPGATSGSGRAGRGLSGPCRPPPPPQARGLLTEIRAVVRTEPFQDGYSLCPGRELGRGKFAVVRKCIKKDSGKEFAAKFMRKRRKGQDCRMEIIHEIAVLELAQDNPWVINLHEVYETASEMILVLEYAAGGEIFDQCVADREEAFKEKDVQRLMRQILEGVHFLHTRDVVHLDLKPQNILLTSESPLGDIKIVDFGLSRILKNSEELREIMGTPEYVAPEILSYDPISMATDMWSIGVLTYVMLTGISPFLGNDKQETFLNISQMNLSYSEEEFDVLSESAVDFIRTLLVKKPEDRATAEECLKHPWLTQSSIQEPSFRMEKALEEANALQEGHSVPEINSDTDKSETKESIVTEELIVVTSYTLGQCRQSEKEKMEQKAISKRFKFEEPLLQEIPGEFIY

[11] = Apparent permeability of compound across apical to basal membrane in human Caco2 cells at 2 uM in DMSO after 2 hrs by LC-MS/MS analysis; assay type: ADME, cell-based; settings: Caco-2
[12] = Apparent permeability of compound across basal to apical membrane in human Caco2 cells at 2 uM in DMSO after 2 hrs by LC-MS/MS analysis; assay type: ADME, cell-based; settings: Caco-2
[13] = Efflux ratio of apparent permeability across basolateral to apical membrane over apical to basolateral membrane in human Caco2 cells; assay type: ADME, cell-based; settings: Caco-2

Chain of CDK9/cyclin T1 (O60563 whole entry): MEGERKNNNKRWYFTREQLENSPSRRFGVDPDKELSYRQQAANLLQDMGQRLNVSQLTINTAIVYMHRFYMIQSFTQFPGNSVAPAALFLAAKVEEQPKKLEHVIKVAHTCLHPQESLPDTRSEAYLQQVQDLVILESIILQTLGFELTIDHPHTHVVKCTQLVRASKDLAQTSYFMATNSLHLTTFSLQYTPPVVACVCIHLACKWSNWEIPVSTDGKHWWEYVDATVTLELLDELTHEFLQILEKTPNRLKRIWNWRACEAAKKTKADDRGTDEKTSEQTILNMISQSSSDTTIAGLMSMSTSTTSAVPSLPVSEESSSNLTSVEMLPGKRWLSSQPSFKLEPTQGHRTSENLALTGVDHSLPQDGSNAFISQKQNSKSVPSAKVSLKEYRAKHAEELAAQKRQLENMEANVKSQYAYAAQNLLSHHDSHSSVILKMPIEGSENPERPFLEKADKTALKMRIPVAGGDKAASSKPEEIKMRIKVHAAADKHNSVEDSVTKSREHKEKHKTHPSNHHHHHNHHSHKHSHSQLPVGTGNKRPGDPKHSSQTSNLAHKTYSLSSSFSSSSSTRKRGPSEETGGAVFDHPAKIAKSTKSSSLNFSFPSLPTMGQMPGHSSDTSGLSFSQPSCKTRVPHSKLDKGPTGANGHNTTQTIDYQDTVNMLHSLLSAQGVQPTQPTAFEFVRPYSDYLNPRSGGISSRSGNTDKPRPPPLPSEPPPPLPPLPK
Chain of CDK9/cyclin T1 (P50750 whole entry): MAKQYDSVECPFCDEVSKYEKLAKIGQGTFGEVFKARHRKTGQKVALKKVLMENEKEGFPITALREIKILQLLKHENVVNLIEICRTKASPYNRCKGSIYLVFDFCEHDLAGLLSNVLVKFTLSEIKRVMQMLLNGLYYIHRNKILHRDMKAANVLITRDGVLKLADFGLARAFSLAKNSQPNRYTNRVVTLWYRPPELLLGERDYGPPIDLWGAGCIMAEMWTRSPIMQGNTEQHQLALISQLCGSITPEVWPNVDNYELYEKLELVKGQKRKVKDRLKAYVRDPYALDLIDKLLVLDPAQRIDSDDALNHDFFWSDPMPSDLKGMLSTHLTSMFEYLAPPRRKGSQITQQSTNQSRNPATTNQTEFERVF
Chain of Ribosomal protein S6 kinase alpha-6 (Q9UK32 whole entry, the tested form may be a part): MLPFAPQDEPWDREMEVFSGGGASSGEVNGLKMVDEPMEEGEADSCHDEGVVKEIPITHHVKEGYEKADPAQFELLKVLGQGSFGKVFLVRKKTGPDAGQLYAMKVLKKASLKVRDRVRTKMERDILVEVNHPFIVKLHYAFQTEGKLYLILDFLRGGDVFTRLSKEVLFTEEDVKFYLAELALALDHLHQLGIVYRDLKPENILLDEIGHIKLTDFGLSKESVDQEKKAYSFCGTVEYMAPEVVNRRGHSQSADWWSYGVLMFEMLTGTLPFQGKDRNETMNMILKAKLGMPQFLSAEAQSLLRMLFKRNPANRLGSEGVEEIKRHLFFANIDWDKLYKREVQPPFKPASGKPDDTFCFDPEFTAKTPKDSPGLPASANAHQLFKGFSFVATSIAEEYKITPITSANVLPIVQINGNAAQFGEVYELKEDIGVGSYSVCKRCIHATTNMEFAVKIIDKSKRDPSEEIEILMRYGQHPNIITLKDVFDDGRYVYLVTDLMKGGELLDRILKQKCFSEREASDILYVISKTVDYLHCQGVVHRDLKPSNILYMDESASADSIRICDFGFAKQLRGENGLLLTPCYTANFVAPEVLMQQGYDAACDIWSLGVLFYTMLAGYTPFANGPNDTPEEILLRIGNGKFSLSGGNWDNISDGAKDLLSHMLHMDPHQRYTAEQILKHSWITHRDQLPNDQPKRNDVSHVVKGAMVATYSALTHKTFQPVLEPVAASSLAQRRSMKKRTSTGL

Structure (SMILES) | pIC50 [1] | pIC50 [2] | pIC50 [3] | pIC50 [4] | pIC50 [5] | pIC50 [6] | pIC50 [7] | pIC50 [8] | pIC50 [9] | pIC50 [10] | Papp A→B at 2 h, 2 µM [11] | Papp B→A at 2 h, 2 µM [12] | efflux ratio [13]
C[C@H](c1ccnc(Nc2nc3ccc(-c4cnn(CC5CCC5)c4)cc3[nH]2)c1)N1CCN(C(=O)CC(F)(F)F)CC1 | 5.43 | 8.40 | 5.27 | 7.03 | 8.70 | 8.22 | < 4.70 | 6.45 | 6.49 | 7.82 | – | – | –
CCn1cc(-c2ccc3nc(Nc4cc(CN5CCN(C(=O)CC(F)(F)F)CC5)ccn4)[nH]c3c2)cn1 | – | 7.01 | – | 5.80 | – | 6.28 | 5.84 | 7.77 | 5.05 | – | 1.7 ×10⁻⁶ cm/s | 17.3 ×10⁻⁶ cm/s | 10
O=C(NCC1CC1)c1ccc2nc(Nc3cc(CN4CCN(C(=O)CC(F)(F)F)CC4)ccn3)[nH]c2c1 | 5.47 | 7.10 | < 4.48 | – | 7.03 | 5.86 | < 4.70 | – | – | – | 0.39 ×10⁻⁶ cm/s | 15.5 ×10⁻⁶ cm/s | 40
N#Cc1ccc2nc(Nc3cc(CN4CCN(C(=O)CC(F)(F)F)CC4)ccn3)[nH]c2c1 | – | 7.77 | – | 5.69 | 7.54 | 6.21 | 8.30 | – | – | – | 3.2 ×10⁻⁶ cm/s | 26.8 ×10⁻⁶ cm/s | 8.3
